The target in one assay is GABAA central benzodiazepine receptor. The assay can be described thus: Benzodiazepine binding assay ((3H)-flunitrazepam displacement). Conditions: read-out: BZ binding assay (IC50); rat whole brain (except cerebellum), 1 nM (3H)-flunitrazepam, 60 minutes at 25° C.; 3-concentration dose response curve.
Broadly, the IC50 is the point on the concentration scale where inhibition reaches its midpoint. For the compound “2-Phenyl-6-(4-iso-propylpiperazin-1-yl)-8-trifluoromethyl-2,5-dihydro-pyrazolo[4,3-c]quinolin-3-one [52d]”, the IC50 was under 1 µM. Same read-out and setting: next, `O=c1c2c[nH]c3ccc(N4CCNCC4)cc3c-2nn1-c1ccccc1` [7a, 2-Phenyl-8-piperazin-1-yl-2,5-dihydro-pyrazolo[4,3-c]quinolin-3-one]: under 1 µM. The same measure, in the same setting: under `CN1CCN(c2ccc3[nH]cc4c(=O)n(-c5ccccc5)nc-4c3c2)CC1` [7b, 8-(4-Methylpiperazin-1-yl)-2-phenyl-2,5-dihydro-pyrazolo[4,3-c]quinolin-3-one] stands under 1 µM. Turning to `CC1CN(c2ccc3[nH]cc4c(=O)n(-c5ccccc5)nc-4c3c2)CC(C)O1` (stereo not drawn) [19h, 8-(2,6-Dimethylmorpholin-4-yl)-2-phenyl-2,5-dihydro-pyrazolo[4,3-c]quinolin-3-one], the IC50 was under 1 µM. Same read-out and setting: next, `O=c1c2c[nH]c3cc(N4CCNCC4)c(F)cc3c-2nn1-c1ccccc1` [28a, 8-Fluoro-2-phenyl-7-piperazin-1-yl-2,5-dihydro-pyrazolo[4,3-c]quinolin-3-one]: under 1 µM; `CN(C)C1CCN(c2cc3[nH]cc4c(=O)n(-c5ccccc5)nc-4c3cc2F)CC1` [28i, 7-(4-Dimethylaminopiperidin-1-yl)-8-fluoro-2-phenyl-2,5-dihydro-pyrazolo[4,3-c]quinolin-3-one]: under 1 µM. Consider `O=c1c2c[nH]c3cc(N4CCN(C5CCCC5)CC4)c(F)cc3c-2nn1-c1ccccc1` [28j, 7-(4-Cyclopentylpiperazin-1-yl)-8-fluoro-2-phenyl-2,5-dihydro-pyrazolo[4,3-c]quinolin-3-one], for which the IC50 was under 1 µM. Regarding `O=c1c2c[nH]c3cc(N4CCC(O)CC4)c(F)cc3c-2nn1-c1ccccc1` [28k, 8-Fluoro-7-(4-hydroxypiperidin-1-yl)-2-phenyl-2,5-dihydro-pyrazolo[4,3-c]quinolin-3-one], the half-maximal inhibitory concentration (IC50) was under 1 µM. Same read-out and setting: under `O=c1c2c[nH]c3cc(N4CCCNCC4)c(F)cc3c-2nn1-c1ccccc1` [28l, 8-Fluoro-7-(perhydro[1,4]-diazepin-1-yl)-2-phenyl-2,5-dihydro-pyrazolo[4,3-c]quinolin-3-one] stands under 1 µM; under `CN1CCCN(c2cc3[nH]cc4c(=O)n(-c5ccccc5)nc-4c3cc2F)CC1` [28m, 8-Fluoro-7-(4-methylperhydro[1,4]-diazepin-1-yl)-2-phenyl-2,5-dihydro-pyrazolo[4,3-c]quinolin-3-one], under 1 µM; under `O=c1c2c[nH]c3cc(N4CCNCC4)c(F)cc3c-2nn1-c1ccccc1F` [28n, 8-Fluoro-2-(2-fluorophenyl)-7-(piperazin-1-yl)-2,5-dihydro-pyrazolo[4,3-c]quinolin-3-one], over 1 µM. The same measure, in the same setting: next, `CN1CCN(c2cc3[nH]cc4c(=O)n(-c5ccccc5F)nc-4c3cc2F)CC1` [28o, 8-fluoro-2-(2-fluorophenyl)-7-(4-methylpiperazin-1-yl)-2,5-dihydro-pyrazolo[4,3-c]quinolin-3-one]: under 1 µM. On the same count and under the same terms, under `CN1CCN(c2cc3[nH]cc4c(=O)n(-c5ccsc5)nc-4c3cc2F)CC1` [28q, 8-fluoro-7-(4-methylpiperazin-1-yl)-2-(thiophen-3-yl)-2,5-dihydro-pyrazolo[4,3-c]quinolin-3-one] stands over 1 µM; under `O=c1c2c[nH]c3cc(N4CCOCC4)c(F)cc3c-2nn1-c1ccsc1` [28r, 8-fluoro-7-(morpholin-4-yl)-2-(thiophen-3-yl)-2,5-dihydro-pyrazolo[4,3-c]quinolin-3-one], under 1 µM. Regarding `O=c1c2c[nH]c3c(F)c(N4CCNCC4)ccc3c-2nn1-c1ccccc1` [48a, 6-Fluoro-2-phenyl-7-piperazin-1-yl-2,5-dihydro-pyrazolo[4,3-c]quinolin-3-one], the IC50 was over 1 µM. Consider `CN1CCN(c2ccc3c4nn(-c5ccccc5)c(=O)c-4c[nH]c3c2F)CC1` [48b, 6-Fluoro-7-(4-methyl-piperazin-1-yl)-2-phenyl-2,5-dihydro-pyrazolo [4,3-c]quinolin-3-one], for which the concentration for half-maximal inhibition (IC50) was over 1 µM.

Take `O=c1c2c[nH]c3c(F)c(N4CCOCC4)ccc3c-2nn1-c1ccccc1` [48c, 6-Fluoro-7-(morpholin-4-yl)-2-phenyl-2,5-dihydro-pyrazolo[4,3-c]quinolin-3-one]: the concentration for half-maximal inhibition (IC50) is under 1 µM. Same read-out and setting: next, `O=c1c2c[nH]c3c(F)c(N4CCCNCC4)ccc3c-2nn1-c1ccccc1` [48d, 6-Fluoro-7-(perhydro[1,4]-diazepine-1-yl)-2-phenyl-2,5-dihydro-pyrazolo[4,3-c]quinolin-3-one]: under 1 µM; `CC(C)N1CCN(c2ccc3c4nn(-c5ccccc5)c(=O)c-4c[nH]c3c2F)CC1` [48e, 6-Fluoro-7-(4-iso-propylpiperazin-1-yl)-2-phenyl-2,5-dihydro-pyrazolo [4,3-c]quinolin-3-one]: under 1 µM; `CC(C)N1CCN(c2ccc3c4nn(-c5ccccn5)c(=O)c-4c[nH]c3c2F)CC1` [48f, 6-Fluoro-7-(4-iso-propylpiperazin-1-yl)-2-(2′-pyridyl)-2,5-dihydro-pyrazolo[4,3-c]quinolin-3-one]: under 1 µM. Regarding `O=c1c2c[nH]c3c(N4CCNCC4)cc(C(F)(F)F)cc3c-2nn1-c1ccccc1` [52a, 2-Phenyl-6-piperazin-1-yl-8-trifluoromethyl-2,5-dihydro-pyrazolo[4,3-c]quinolin-3-one], the IC50 was under 1 µM. Still for that read-out and setting: under `CN1CCN(c2cc(C(F)(F)F)cc3c4nn(-c5ccccc5)c(=O)c-4c[nH]c23)CC1` [52b, 2-Phenyl-6-(4-methylpiperazin-1-yl)-8-trifluoromethyl-2,5-dihydro-pyrazolo[4,3-c]quinolin-3-one] stands under 1 µM; under `O=c1c2c[nH]c3c(N4CCCNCC4)cc(C(F)(F)F)cc3c-2nn1-c1ccccc1` [52c, 2-Phenyl-6-(perhydro[1,4]-diazepine-1-yl)-8-trifluoromethyl-2,5-dihydro-pyrazolo[4,3-c]quinolin-3-one], under 1 µM. Regarding `Cc1[nH]c2cc(N3CCNCC3)c(F)cc2c2nn(-c3ccccc3)c(=O)c1-2` [63a, 8-Fluoro-4-methyl-2-phenyl-7-piperazin-1-yl-2,5-dihydro-pyrazolo[4,3-c]quinolin-3-one], the concentration for half-maximal inhibition (IC50) is over 1 µM. Consider `Cc1[nH]c2cc(N3CCOCC3)c(F)cc2c2nn(-c3ccccc3)c(=O)c1-2` [63b, 8-Fluoro-4-methyl-7-morpholin-4-yl-2-phenyl-2,5-dihydro-pyrazolo [4,3-c]quinolin-3-one], for which the IC50 is over 1 µM. In the case of `O=c1c2c[nH]c3cc(N4CCOCC4)c(F)c(N4CCOCC4)c3c-2nn1-c1ccccc1` [compound 55, 7,9-Bis(morpholin-4-yl)-8-fluoro-2-phenyl-2,5-dihydro-pyrazolo[4,3-c]quinolin-3-one], the IC50 was under 1 µM.

A further assay concerns GABAA receptors. Kind of assay: Electrophysiology assay (two-electrode voltage clamp, Xenopus oocytes expressing GABAA receptors). Type of assay: cell-based. The following applies: positive (Pos) or negative (Neg) modulation of current at GABA EC20, screening concentration of 10 μM. The protocol:
The modulation of GABAA function is determined by changes in current as determined in an electrophysiology assay, as is detailed below.
mRNA was prepared from lyophilized plasmid pellets containing cDNA inserts encoding the specific GABAA receptor subunit. cDNAs encoding the α2, α3, and γ3 subunits were subcloned into pBluescript, SK^−. cDNAs encoding the a 1 and a 5 subunits were subcloned into prC while cDNA encoding the β2 subunit was subcloned into pcDNA1. The cDNA construct encoding the g 2s subunit is in the pGH19 expression construct. Overnight cultures of transformed DH5a bacterial cells were performed to grow sufficient quantities for maxiprep isolation of the plasmid cDNA. The resulting plasmid cDNA was linearized by digestion with an appropriate restriction enzyme that cleaves distal to the cDNA insert [XbaI (α1, β2), NotI (α3, γ2 s), SacII (α2), or ApaI (α5)]. Following digestion, plasmid cDNA was treated with proteinase K and extracted with phenol/chloroform/isoamyl alcohol, followed by ethanol precipitation. cDNA quality was assessed by agarose-gel electrophoresis (1.5% agarose gel). Samples were stored at −20° C. until use. In vitro transcription was performed with T7 RNA polymerase. mRNA was then stored at −80° C. until use. Plasmids were linearized with appropriate restriction enzymes before in vitro transcription using the Message Machine kit (Ambion, Austin, Tex.).
GABAA receptor expression in Xenopus oocytes: Following 45 min of 0.15% Tricaine anesthesia, an ovarian section containing the follicular oocytes was removed from the frog through a lateral abdominal incision. Oocytes were immediately placed in a calcium-free solution (NaCl 96 mM, MgCl2 1 mM, KCl 2 mM, Hepes 50 mM, pyruvate 2.5 mM, gentamycin 100 μg/mL, penicillin-streptomycin 50 U/mL, pH 7.4). Following 1.5-2 hour incubation in 0.2% collagenase (type II, Sigma Chemical Co., St. Louis, Mo.) at room temperature, individual Dumont stage V and VI oocytes were transferred to an incubator and maintained overnight in Barth's solution (NaCl 84 mM, NaHCO3 2.4 mM, MgSO4 0.82 mM, KCl 1 mM, Ca(NO3)2 0.33 mM, CaCl2 0.41 mM, Tris/HCl 7.5 mM, pyruvate 2.5 mM, gentamycin 50 μg/mL, penicillin-streptomycin, 100 units/mL, pH 7.4) at 18-20° C. and used for experiments 1-5 days post-injection. Oocytes were injected solution using an electronic microinjector (Drummond, Broomall, Pa.) with 50 nL of RNA containing 0.3-0.5 ng of each subunit RNA in a 1:1:2 ratio. The injected oocytes were used for experiments after 1-5 days of incubation in Barth's solution at 18-20° C.
Measurements of ion currents from oocytes expressing GABAA receptors were performed using a Warner two-electrode voltage-clamp amplifier (Warner Instruments, Inc., Foster City, Calif.) (Park-Chung, M. A., et al. (1999) Brain Res. 830: 72-87 incorporated herein in its entirety). Microelectrodes were fabricated from borosilicate glass capillaries with a programmed pipette puller (Sutter Instrument Co., CA). Microelectrode resistance was 1-3 MΩ when filled with 3 M KCl. The oocyte recording chamber was continuously perfused with ND-96 solution. Oocytes were clamped at a holding potential of −70 mV during data acquisition. The membrane current was filtered at 10 Hz and sampled at 100 Hz. Compounds were applied by a gravity-driven external perfusion system. The working volume of the recording chamber was […] and the rate of the perfusion was approximately […]. Compound application was 20-25 sec followed by a minimum of 150 sec wash. Data acquisition and external perfusion was computer controlled by custom-developed software. All experiments were performed at room temperature (22-24° C.). Dose-response data from each oocyte were fitted to the Hill equation by non-linear regression using the equation: IGABA=Emax/(1+(EC50/c)nH)
Emax is the maximum response, EC50 is the concentration producing 50% of the maximal response, nH is the Hill coefficient and c is the concentration of agonist. […]
Background: Two-electrode voltage clamp is typically applied to oocytes expressing channels or transporters.
Consider `O=c1c2c[nH]c3ccc(N4CCNCC4)cc3c-2nn1-c1ccccc1` [7a, 2-Phenyl-8-piperazin-1-yl-2,5-dihydro-pyrazolo[4,3-c]quinolin-3-one], for which the “EP Result” value is listed as “Pos”. For the compound `CN1CCN(c2ccc3[nH]cc4c(=O)n(-c5ccccc5)nc-4c3c2)CC1` [7b, 8-(4-Methylpiperazin-1-yl)-2-phenyl-2,5-dihydro-pyrazolo[4,3-c]quinolin-3-one], the “EP Result” value is “Pos”. As to `O=c1c2c[nH]c3c(N4CCOCC4)cc(N4CCOCC4)cc3c-2nn1-c1ccccc1` [58a, 6,8-Bis(morpholin-4-yl)-2-phenyl-2,5-dihydro-pyrazolo[4,3-c]quinolin-3-one], the “EP Result” value is listed as “Neg”. Same read-out and setting: under `CC(C)N1CCN(c2cc(N3CCN(C(C)C)CC3)c3[nH]cc4c(=O)n(-c5ccccc5)nc-4c3c2)CC1` [58b, 6,8-Bis(4-iso-propylpiperazin-1-yl)-2-phenyl-2,5-dihydro-pyrazolo[4,3-c]quinolin-3-one] stands “Neg”.
